Several values for one entry are separate records, joined by “and”; a condition that tells them apart may be missing. Equal entries are not always repeated. Where two headings read alike, the source gives them in different places.
Assays:
[1] = test system: PIV-3 (recombinant JS-derived strain encoding GFP); assay type: cell-based, parainfluenza virus type 3
recombinant RSV L+P = recombinant RSV L+P (Human respiratory syncytial virus A, UniProt P28887); assay: De novo RNA synthesis assay, recombinant RSV L+P, Tr14 template; assay type: biochemical, Human RSV (strain A2)
Protocol: The reactions were performed as described by Cressey et al.[22]. […] The reactions were incubated at 30 °C for 1 h and then stopped by adding gel loading buffer containing 90% formamide, 50 mM EDTA, 0.05% Xylene Cyanol and Bromophenol Blue. Samples were denatured at 95 °C for 5 min and run on a 22.5% polyacrylamide urea sequencing gel at 80 W with radiolabeled RNA markers generated via the T7 DNA dependent RNA polymerase (DdRp). The gel was dried, exposed to a phosphor-screen, scanned on a Typhoon scanner (GE Healthcare), and quantified using ImageQuant (GE Healthcare). Bands were identified as extension products or initiation products by the 11-nucleotide ppp[…] and 2-nucleotide pppGA RNA markers, respectively. Radiolabeled RNA markers corresponding to pppGA, ppp[…], and intermediates were generated utilizing a reaction by T7 DNA-dependent RNA polymerase (AM2718, Ambion)[53]. DNA oligos: 5’-[…]-3’ (T7 promoter primer) and 5’-[…]-3’ (T7 promoter primer + target sequence template) were synthesized at IDT. Due to a mechanistic idiosyncrasy in T7 DdRp, an additional Adenosine residue was placed between the T7 promoter and the target sequence in the template. Each 40 µl reaction contained 5 mM ATP, 5 mM CTP, 5 mM GTP, 100 nM annealed DNA primer and template, 20 U T7 DdRp, 1x T7 DdRp Buffer (40 mM Tris pH 7.8, 20 mM NaCl, 6 mM MgCl2, 2 mM Spermidine HCl, 10 mM DTT), and 20 µCi of [α-^33P]ATP. Reactions were incubated at 30 °C for 5 h. Then 1 µl of reconstituted DNase I (Ambion) was added and incubated for an additional 10 min at 37 °C. This reaction was quenched with the addition of 60 µl gel loading buffer.
Supplementary Figure 4. Inhibition of de novo initiation and extension of RSV L-P RNA synthesis by JNJ-8003. a. reaction scheme. b. a sequencing gel image showing RNA products […]
contained 10 nM RSV L-P, 2 μM RNA template (Tr14), 500 μM GTP, 10 μM ATP, 170 nM [α-33P]ATP, so RNA synthesis started from +3 site and paused with a major 11-mer product. c.
Data was from the quantitation results of the gel image in b. d. The reactions […]
Data points indicate the mean, and error bars depict the SD of three technical replicates. e. a sequencing gel image showing RNA products synthesized by RSV L-P along with no enzyme control. Reaction condition was same as in b with no compound added. […]

[2] = test system: rgRSV224 (RSV A2 reporter virus); assay: Inhibition of rgRSV224 reporter RSV in HeLa cells (GFP); settings: human respiratory syncytial virus, 72 h, read-out: Median EC50
Human RNA polymerase II = Human RNA polymerase II (Homo sapiens, UniProt P24928+P30876); assay: RNA polymerase II DdRp activity (HeLa nuclear extract); assay type: biochemical; settings: RNA Pol II
[3] = test system: RSV A clinical isolates and laboratory strains; assay: Inhibition of RSV-A clinical isolates and laboratory strains, RT-qPCR, HeLa; assay type: cell-based; settings: human respiratory syncytial virus, 10 strains, read-out: Median EC50
Protocol: Then, 100 µL of a HeLa cell suspension (5 × 10^4 cells/mL) in culture medium was added to each well. […] After 3 days of incubation, the supernatant was removed from wells. Plates were washed twice with ice-cold PBS (100 µL/well), and were then sealed and stored overnight at −80 °C. Next, 50 µL of lysis solution supplemented with DNAse was added to the plates and incubated for 5 min followed by the addition of 5 µL stop solution (Ambion Cell-to-CT bulk lysis reagent buffer). […] Roche) for cDNA synthesis. Reverse transcription was performed at 42 °C for 30 min, followed by denaturation at 95 °C for 5 min. […] The reaction consisted of a denaturation step (95 °C for 600 s), 45 cycles of denaturation (95 °C for 15 s) and annealing/elongation (60 °C for 60 s), and a step of cooling (40 °C for 10 s).

RSV L+P RdRp = RSV L+P RdRp (Human respiratory syncytial virus A, UniProt P28887); assay: Biotinylated primer extension Flashplate assay, recombinant RSV L+P; assay type: biochemical, Human RSV (strain A2)
Protocol: RNA polymerase reaction samples consisted of recombinant RSV L-P polymerase (3 nM) in a buffer containing Tris pH 7.5 (20 mM), KCl (10 mM), dithiothreitol (2 mM), Triton (0.01%), DMSO (10% v/v) with compound at appropriate dilution (10 points 1:5-fold serial dilution starting at 1 µM), and MgCl2 (6 mM). Reactions were started at 30 °C by adding an oligonucleotide template sequence derived from the RSV leader promoter (5’-[…]-3’, 0.2 μM) together with a biotinylated primer (5’-bi-ACGC, 4 μM) mixed with GTP (10 µM), ATP (10 µM) and [α-^33P]CTP (0.025 µM, 3000 Ci/mmol) in a final volume of 10 μL. Reactions were stopped after 120 min by the addition of 90 µl EDTA (0.1 M). Samples were transferred to Flashplates and left 1 h at room temperature for incubation before being washed twice with 0.1% Tween 20, sealed (Topseal) and read on a Wallac MicroBeta TriLux Liquid Scintillation Counter.

[4] = test system: HMPV (recombinant CAN97-83-derived strain encoding GFP); assay: microbe, parasite or virus in culture; assay type: cell-based; settings: human metapneumovirus, LLC-MK2
RSV L+P complex = RSV L+P complex (Human respiratory syncytial virus A, UniProt P28887); assay: Surface plasmon resonance assay; assay type: binding, Human RSV (strain A2); settings: SPR, 37°C
[5] = test system: PIV-1 (recombinant Washington/20993/1964-derived strain encoding GFP); assay type: cell-based, parainfluenza virus type 1
[6] = repeat in triplicate, 0.093 nM to 200 nM

Chain of RSV L+P RdRp (P03421 whole entry): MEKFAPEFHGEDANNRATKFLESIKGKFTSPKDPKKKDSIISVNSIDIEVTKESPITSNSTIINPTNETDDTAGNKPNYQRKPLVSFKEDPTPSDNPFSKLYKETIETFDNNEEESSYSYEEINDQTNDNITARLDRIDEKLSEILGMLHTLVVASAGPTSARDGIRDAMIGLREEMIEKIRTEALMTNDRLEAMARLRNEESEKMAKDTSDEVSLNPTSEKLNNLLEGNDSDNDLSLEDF
Chain of RSV L+P RdRp (P28887 whole entry): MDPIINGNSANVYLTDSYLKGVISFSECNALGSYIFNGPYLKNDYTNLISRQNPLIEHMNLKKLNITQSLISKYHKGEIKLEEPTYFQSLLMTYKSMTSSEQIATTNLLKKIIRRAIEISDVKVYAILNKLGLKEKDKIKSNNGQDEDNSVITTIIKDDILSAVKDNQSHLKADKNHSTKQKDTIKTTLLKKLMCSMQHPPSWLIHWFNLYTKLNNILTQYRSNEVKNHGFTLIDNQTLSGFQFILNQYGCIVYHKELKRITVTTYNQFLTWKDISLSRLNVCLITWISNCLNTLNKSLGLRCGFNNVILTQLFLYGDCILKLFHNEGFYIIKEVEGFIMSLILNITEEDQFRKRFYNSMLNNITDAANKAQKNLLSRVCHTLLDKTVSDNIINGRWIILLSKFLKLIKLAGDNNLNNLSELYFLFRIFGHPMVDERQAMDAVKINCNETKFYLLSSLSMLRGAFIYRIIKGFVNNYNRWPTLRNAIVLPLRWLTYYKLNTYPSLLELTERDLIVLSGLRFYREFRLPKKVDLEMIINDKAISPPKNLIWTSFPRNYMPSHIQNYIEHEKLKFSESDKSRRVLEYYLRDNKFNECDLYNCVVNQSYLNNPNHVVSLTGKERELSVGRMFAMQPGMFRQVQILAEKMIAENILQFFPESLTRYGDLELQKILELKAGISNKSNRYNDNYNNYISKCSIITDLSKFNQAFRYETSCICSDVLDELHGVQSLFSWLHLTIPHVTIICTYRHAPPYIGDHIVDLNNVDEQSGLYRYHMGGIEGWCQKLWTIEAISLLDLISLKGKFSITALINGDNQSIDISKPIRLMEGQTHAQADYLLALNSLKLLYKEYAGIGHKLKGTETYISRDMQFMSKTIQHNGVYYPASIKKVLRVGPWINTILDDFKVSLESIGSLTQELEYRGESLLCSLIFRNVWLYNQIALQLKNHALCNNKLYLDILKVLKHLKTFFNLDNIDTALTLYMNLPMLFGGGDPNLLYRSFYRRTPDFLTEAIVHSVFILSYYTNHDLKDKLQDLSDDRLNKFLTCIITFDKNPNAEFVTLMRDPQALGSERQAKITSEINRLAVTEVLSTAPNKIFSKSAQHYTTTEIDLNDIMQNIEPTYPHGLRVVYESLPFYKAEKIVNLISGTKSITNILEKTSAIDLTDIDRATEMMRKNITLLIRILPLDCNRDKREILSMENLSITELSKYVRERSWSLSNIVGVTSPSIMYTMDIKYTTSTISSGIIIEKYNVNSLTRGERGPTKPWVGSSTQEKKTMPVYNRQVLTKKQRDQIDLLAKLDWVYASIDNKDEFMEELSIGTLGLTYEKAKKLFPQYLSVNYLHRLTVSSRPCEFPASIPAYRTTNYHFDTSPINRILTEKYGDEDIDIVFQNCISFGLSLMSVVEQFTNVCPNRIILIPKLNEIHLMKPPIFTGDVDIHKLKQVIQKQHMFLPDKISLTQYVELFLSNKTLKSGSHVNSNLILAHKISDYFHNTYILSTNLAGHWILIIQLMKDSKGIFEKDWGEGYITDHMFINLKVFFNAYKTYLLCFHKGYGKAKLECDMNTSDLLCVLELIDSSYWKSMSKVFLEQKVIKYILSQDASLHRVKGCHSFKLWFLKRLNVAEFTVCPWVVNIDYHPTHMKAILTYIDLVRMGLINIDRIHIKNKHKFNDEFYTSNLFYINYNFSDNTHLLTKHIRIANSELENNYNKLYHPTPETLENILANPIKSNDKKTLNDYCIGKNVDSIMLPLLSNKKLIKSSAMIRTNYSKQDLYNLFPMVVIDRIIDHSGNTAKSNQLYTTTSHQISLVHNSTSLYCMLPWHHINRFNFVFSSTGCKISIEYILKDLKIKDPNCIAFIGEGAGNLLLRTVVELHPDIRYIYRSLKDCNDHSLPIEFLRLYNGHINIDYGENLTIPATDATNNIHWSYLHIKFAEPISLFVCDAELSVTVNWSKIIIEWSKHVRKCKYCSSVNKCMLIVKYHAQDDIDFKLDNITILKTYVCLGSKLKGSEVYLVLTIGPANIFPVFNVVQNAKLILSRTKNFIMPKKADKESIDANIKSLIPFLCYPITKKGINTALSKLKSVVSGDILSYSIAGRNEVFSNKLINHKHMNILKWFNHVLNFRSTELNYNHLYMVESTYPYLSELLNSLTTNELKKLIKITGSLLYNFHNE
Chain of recombinant RSV L+P (P28887 whole entry): as above
Chain of recombinant RSV L+P (P03421 whole entry, further chain): as the sequence (P03421 whole entry) above

## COc1cc(C(=O)NC[C@](O)(c2cc(C(C)(C)O)c(F)c(-c3ccc(F)cc3)n2)C(F)(F)F)cc2cc(C)nnc12 [JNJ-8003]
[1]
  inhibition (in words): negligible inhibition
Recombinant RSV L+P; 9.3 pM to 200 μM
  maximal inhibition, 11-mer product: 99%
  maximal inhibition, de novo pppGpA formation: 65%
Recombinant RSV L+P; 9.3 pM to 200 μM, read-out: IC50, 11-mer product
  IC50: 4.7 nM
Recombinant RSV L+P; +3 site, tr-14, 9.3 pM to 200 μM, read-out: IC50, de novo pppGpA dinucleotide formation
  IC50: 5.1 nM
Recombinant RSV L+P; [6]
  maximal inhibition, 11-mer product: 100%
  maximal inhibition, de novo pppGpA formation: 69%
Recombinant RSV L+P; repeat in triplicate, 0.093 nM to 200 nM, read-out: IC50, 11-mer product
  IC50: 3.6 nM
Recombinant RSV L+P; repeat in triplicate, 0.093 nM to 200 nM, read-out: IC50, de novo pppGpA formation
  IC50: 2.3 nM
[2]
  EC50: 0.78 nM
Human RNA polymerase II
  IC50: > 100000 nM
[3]
  EC50: 0.18 nM
RSV L+P RdRp; RSV L+P RdRp primer extension, n 18, read-out: Median IC50
  IC50: 0.73 nM
RSV L+P RdRp; RdRp activity, Flashplate (Fig. 1c), read-out: IC50
  IC50: 0.67 nM
RSV L+P RdRp; [JNJ-8003] 0.00032 uM, replicates 1-4
  inhibition at 0.00032 µM: 28.6%
RSV L+P RdRp; [JNJ-8003] 0.00032 uM, replicates 1-4, 0.00032 µM
  % inhibition: 26.2934% and 27.7635% and 40.6870%
RSV L+P RdRp; [JNJ-8003] 0.0016 uM, replicates 1-4
  inhibition at 0.0016 µM: 55.8%
RSV L+P RdRp; [JNJ-8003] 0.0016 uM, replicates 1-4, 0.0016 µM
  % inhibition: 60.6805% and 64.1654% and 73.5323%
RSV L+P RdRp; [JNJ-8003] 0.008 uM, replicates 1-4
  inhibition at 0.008 µM: 81.4%
RSV L+P RdRp; [JNJ-8003] 0.008 uM, replicates 1-4, 0.008 µM
  % inhibition: 89.6905% and 92.3440% and 94.9354%
RSV L+P RdRp; [JNJ-8003] 0.04 uM, replicates 1-4
  inhibition at 0.04 µM: 93%
RSV L+P RdRp; [JNJ-8003] 0.04 uM, replicates 1-4, 0.04 µM
  % inhibition: 96.5839% and 97.2066% and 98.2976%
RSV L+P RdRp; [JNJ-8003] 0.2 uM, replicates 1-4
  inhibition at 0.2 µM: 95.2%
RSV L+P RdRp; [JNJ-8003] 0.2 uM, replicates 1-4, 0.2 µM
  % inhibition: 96.5743% and 98.0014% and 97.9026%
[4]
  EC50: 88 nM
RSV L+P complex
  off-rate: 0.0000181 s⁻¹
  on-rate: 2.16e+06 M⁻¹ s⁻¹
[5]
  inhibition (in words): negligible inhibition

From publication PMC10590419, “Structural and mechanistic insights into the inhibition of respiratory syncytial virus polymerase by a non-nucleoside inhibitor” (Communications Biology, 2023)
